Assay results taken from ChEMBL document CHEMBL1136573, “Condensed aromatic peptide family of microbial metabolites, inhibitors of CD28-CD80 interactions” (Bioorg Med Chem Lett, 2003).

What was measured:
[1] = Inhibition of CD28-CD80 interaction in the absence of fetal bovine serum (FBS)
[2] = target: T-cell surface glycoprotein CD4 (Homo sapiens, UniProt P01730); experiment: Inhibitory concentration against CD4-gp120 binding in the absence of fetal bovine serum (FBS); Range is 0.13-0.5 uM
[3] = Inhibition of CD28-CD80 interaction in the presence of fetal bovine serum (FBS)

IC50 [1]	IC50 [2]	IC50 [3]	SMILES
8 nM	130 nM	220 nM	CC(=O)CC(O)(C(=O)N[C@@H]1Cc2c[nH]c3cc(ccc23)-c2cc3cc(c2O)Oc2ccc(cc2)C[C@@H](C(=O)N[C@@H](C(=O)O)c2ccc(O)cc2)N(C)C(=O)[C@@H](c2cc(Cl)c(O)c(Cl)c2)NC(=O)[C@@H]3NC(=O)[C@@H](c2cc(Cl)c(O)c(Cl)c2)NC1=O)c1cc(Cl)c(O)c(Cl)c1 (some centres undefined)
10 nM	130 nM	380 nM	CN1C(=O)[C@@H](c2cc(Cl)c(O)c(Cl)c2)NC(=O)[C@@H]2NC(=O)[C@@H](c3cc(Cl)c(O)c(Cl)c3)NC(=O)[C@H](NC(=O)C(=O)c3cc(Cl)c(O)c(Cl)c3)Cc3c[nH]c4c(cccc34)-c3cc2cc(c3O)Oc2ccc(cc2)C[C@H]1C(=O)N[C@@H](C(=O)O)c1ccc(O)cc1 [CHLOROPEPTIN]
10 nM	130 nM	420 nM	CN1C(=O)[C@@H](c2cc(Cl)c(O)c(Cl)c2)NC(=O)[C@@H]2NC(=O)[C@@H](c3cc(Cl)c(O)c(Cl)c3)NC(=O)[C@H](NC(=O)C(=O)c3cc(Cl)c(O)c(Cl)c3)Cc3c[nH]c4cc(ccc34)-c3cc2cc(c3O)Oc2ccc(cc2)C[C@H]1C(=O)N[C@@H](C(=O)O)c1ccc(O)cc1 [ISOCOMPLESTATIN]
